We go through three compounds from patent USRE45810E1, “Process for producing spherical base granule comprising easily water-soluble drug” (ASAHI KASEI CHEMICALS CORPORATION, priority 2006, dated 2015).

Like-named read-outs stand apart in the source and are kept apart here.

For data set [1] the following is noted: in 1 cm^3 of water of 20° C., cited from earlier work.
A short description of data set [2]: Tackiness of dried film of layering liquid, finger test by panel of three experts. The data set is classed as physicochemical. On the procedure: A layering liquid (3 g) is poured in a polypropylene Petri dish having a diameter of 8 cm and dried at 40° C. in an air-circulation-free dryer (“FC610”, product of Advantec Co., Ltd.). Within three seconds after taking out the dried product from the dryer, tackiness of the dried film when an index finger is pressed against the film for two seconds and then released therefrom is evaluated by a panel of three experts. The tackiness is rated as “1” when no tackiness is observed, “2” when a little tackiness is observed, “3” when tackiness is observed, “4” when strong tackiness is observed, and “5” when very strong tackiness is observed. The tackiness of the dried film is evaluated by the average of them.
It is known empirically that agglomeration occurs during layering when the tackiness is “3” or higher so that the layering rate must be set low to prevent it. Layering cannot be performed in practice when the tackiness is “5”.

`OC[C@@H](O)[C@@H](O)[C@H](O)[C@H](O)CO` [D-mannitol]: the Solubility in data set [1] was 0.18 g.

Consider `O=C(CO)[C@@H](O)[C@H](O)[C@H](O)CO` [Fructose, fructose], for which the “Tackiness of layering liquid (in words)” value in data set [2] is “do not show a tackiness reducing effect”. The Solubility in data set [1] is 6 g; in data set [1] (listed as fructose) it was 0.6 g.

On to `OC[C@@H](O)[C@@H](O)[C@H](O)[C@@H](O)CO` [Sorbitol, sorbitol], for which the “Tackiness of layering liquid (in words)” value in data set [2] was “do not show a tackiness reducing effect”. In addition, in data set [1], the Solubility is 0.9 g.
